US20100016221A1, “METHOD OF DEGRADING PROTEIN BY CHAPERONE-MEDIATED AUTOPHAGY” (RIKEN, priority 2008, published 2010)

Tests used:
tNhtt-60Q = target: T1, tNhtt-60Q (Homo sapiens, UniProt P42858, INS38QQQQQQQQQQQQQQQQQQQQQQQQQQQQQQQQQQQQQQQ); assay: Dot blot of purified intact lysosomes from Neuro2a cells co-transfected with tNhtt-60Q; format: cell-based; details: 16 hours
T1 construct: N-terminal fragment of human huntington exon 1 (tNhtt) encoding 60 CAG repeats; expressed in transfected cells; host or cells: Neuro2a cells, transient co-transfection
Method: We used a modification of the previously described method for the purification of lysosomes from CHO cells (E. A. Madden, B. Storrie, Anal. Biochem. 163, 2 (1987), E. A. Madden, J. B. Wirt, B. Storrie, Arch. Biochem. Biophys. 257, 1 (1987)). Neuro2a cells grown in 10 cm dishes were co-transfected with tNhtt-60Q and tested constructs, and after 16 hrs of incubation, cells were washed with ice cold PBS and homogenized by ten strokes. The homogenate was centrifuged at 1300 g for 5 min. The supernatant was decanted and placed on ice. The nuclear fraction was resuspended in 0.25 M sucrose and centrifuged at 1300 g for 5 min. This step was repeated 3 times and the supernatants from each wash were pooled to give a total post-nuclear supernatant (PNS). All the solutions used for the preparation of the discontinuous gradient were in 0.25 M sucrose. Gradients were prepared in cellulose nitrate tubes for Beckman SW40 rotor. Two ml of 35% Histodenz (Sigma) was overlaid with 2 ml of 17% Histodenz followed by 5 ml of 6% Percoll (Sigma). The tubes were then filled with 4.8 ml of PNS. […]
Cells were washed twice with ice-cold PBS, scraped, and resuspended in lysis buffer (0.5% Triton X-100 in PBS, 0.5 mM phenylmethylsulfonyl fluoride, Complete protease inhibitor mixture (Roche Applied Sciences)). […] Immunoreactive proteins were detected with enhanced chemiluminescence reagents (Amersham Biosciences). […]

150Q-nls Neuro2a cells = assay: Cell death assay (propidium iodide uptake) in 150Q-nls Neuro2a cells; format: cell-based, mouse; details: after 48 hours of induction
Method: (§1) Mouse neuroblastoma (Neuro2a) cells were maintained in Dulbecco's modified Eagle's medium (Sigma) supplemented with 10% heat-inactivated fetal bovine serum (Sigma), 100 U/ml penicillin and 100 μg/ml streptomycin (Invitrogen) at 37° C. in an atmosphere containing 5% CO2 and 95% air. Establishment of stable Neuro2a cell lines with the ecdysone-inducible mammalian expression system (Invitrogen), that express tNhtt-EGFP-16Q (16Q Neuro2a cells), tNhtt-EGFP-150Q (150Q Neuro2a cells) and tNhtt-EGFP-150Q-nls (150Q-nls Neuro2a cells) has been described earlier (T. Nagai et al., supra, H. Doi et al., supra, E. A. Zemskov et al., J Neurochem. 87, 2 (2003)). Neuro2a cells were differentiated with 5mM dbcAMP (N^6, 2′-O-dibutyryladenosine-3′,5′-cyclic monophosphate sodium salt) (Nacalai Tesque) and induced to express tNhtt-polyQ with 2 μM ponasterone A (ponA; Invitrogen) for indicated times. Neuro2a/FRT/TR cell line was generated as described in the protocol for Flp-in/T-Rex system (Invitrogen). […]
For quantification of cell death, 5 μg/ml each of Hoechst 33342 and propidium iodide (PI) were added to differentiated and induced Neuro2a cells transiently transfected with either of the tested constructs (FIG. 6A). After 10 minutes at 37° C., the number of cells with PI uptake over the total number of cells was calculated by ArrayScan.

[1] = test system: polyQ inclusions in 150Q-nls Neuro2a cells (tNhtt-EGFP-150Q-nls); assay: ArrayScan quantification of polyQ inclusion formation in inducible 150Q-nls Neuro2a cells; format: cell-based, mouse; details: 150Q-nls Neuro2a cells, constructs without mRFP, 48 hours after induction
Method: as §1, with “(Invitrogen). Neuro2a tNhtt-62Q-kikGR cell line was generated by transfecting Neuro2a/FRT/TR cells with the pFRT-HD62-KikGR and pOG44 (Invitrogen) constructs using Lipofectamine 2000 reagent and selected with 200 μg/ml hygromycin. The expression of the pFRT-tNhtt-62Q-KikGR was induced by 18 doxycycline treatment of the cells. For the photo-induced kikGR cleavage, cells were exposed to ˜400 nm wavelength for 5 minutes.” for “(Invitrogen).”
For the quantification of the inclusions, cells were grown in 24-well plates for indicated periods, fixed in 4% paraformaldehyde, washed and incubated with Hoechst 33258 at 1/1000 dilution in PBS. Cells were analyzed by ArrayScan® V^TI High Content Screening (HSC) Reader (Cellomics) using Target Activation BioApplication (TABA). TABA analyzes images acquired by a HSC Reader and provides measurements of the intracellular fluorescence intensity and localization on a cell-by-cell basis.
In each well, at least 10000 cells were counted and quantified for the presence of the inclusions. Nuclei stained with Hoechst 33285 provided the autofocus target and their count gave the exact number of the quantified cells. The screening itself consisted of two scans using Hoechst, FITC (for GFP) and TRITC (for RFP) fluorescence. Firstly, number of inclusions in transfected cells was calculated when fluorescent spots at size of at least 5 pixels (magnification 20× for cytoplasmic and 40× for nuclear aggregates) with average GFP intensity more than 1500 in the RFP background were counted. […] The percentage of the cells with aggregates was then calculated. When the constructs without mRFP were used for transfection, the procedure was same, except the RFP intensity was not measured. […] Data was generated from the quantification of more than 250,000 cells in each experimental set-up.

T1 sequence (P42858 with tags, fused parts or gaps with the stated changes): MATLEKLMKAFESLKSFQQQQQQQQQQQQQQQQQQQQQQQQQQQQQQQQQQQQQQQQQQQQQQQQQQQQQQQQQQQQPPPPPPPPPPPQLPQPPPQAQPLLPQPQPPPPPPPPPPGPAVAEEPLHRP

translocation of expanded polyQ toward the lysosomes (tNhtt-60Q): efficient translocation
Substance: HSC70bm-(QBP1)2 (MARVKKDQAEPLHRKFERQPPGSNWKWWPGIFDSNWKWWPGIFD) [HQ]
decrease of the percentage of PI-positive cells (150Q-nls Neuro2a cells): 47.2% | reduction of aggregation compared to control counterparts (S and HS) [1]: 45.2%
